The text below walks through data of patent US20030086923A1, “Method for the prevention and/or treatment of atherosclerosis” (priority 1999, published 2003).

Assay [1] deals with T1, human PPARδ (Homo sapiens, UniProt Q03181).
T1 sequence (Q03181 1-441): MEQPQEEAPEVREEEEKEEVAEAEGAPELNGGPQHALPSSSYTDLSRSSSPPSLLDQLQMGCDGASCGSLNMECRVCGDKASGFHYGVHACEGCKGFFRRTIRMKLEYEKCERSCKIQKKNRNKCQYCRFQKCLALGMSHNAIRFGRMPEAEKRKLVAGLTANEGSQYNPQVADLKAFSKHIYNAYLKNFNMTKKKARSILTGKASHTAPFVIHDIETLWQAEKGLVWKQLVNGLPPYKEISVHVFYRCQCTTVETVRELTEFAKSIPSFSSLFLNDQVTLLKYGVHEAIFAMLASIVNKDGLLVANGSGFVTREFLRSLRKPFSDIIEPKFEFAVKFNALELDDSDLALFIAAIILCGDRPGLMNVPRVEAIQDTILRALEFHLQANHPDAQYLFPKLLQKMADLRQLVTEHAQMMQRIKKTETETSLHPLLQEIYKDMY
Kind of assay: PPARδ competition binding assay. From the text: (§1) The term ligand throughout this application should be understood to include an agonist, partial agonist or antagonist of LXR. The ligand may be selective for LXRα or LXRβ, or it may have mixed binding affinity for both LXRα and LXRβ. Particularly, compounds within the scope of this invention include those which have greater selectivity as determined by binding affinity for LXRα and/or LXRβ receptors than they have for each of the PPARα, γ and δ receptors.

In assay [2] the target is T2, human PPARα (Homo sapiens, UniProt Q07869).
T2 sequence (Q07869 1-468): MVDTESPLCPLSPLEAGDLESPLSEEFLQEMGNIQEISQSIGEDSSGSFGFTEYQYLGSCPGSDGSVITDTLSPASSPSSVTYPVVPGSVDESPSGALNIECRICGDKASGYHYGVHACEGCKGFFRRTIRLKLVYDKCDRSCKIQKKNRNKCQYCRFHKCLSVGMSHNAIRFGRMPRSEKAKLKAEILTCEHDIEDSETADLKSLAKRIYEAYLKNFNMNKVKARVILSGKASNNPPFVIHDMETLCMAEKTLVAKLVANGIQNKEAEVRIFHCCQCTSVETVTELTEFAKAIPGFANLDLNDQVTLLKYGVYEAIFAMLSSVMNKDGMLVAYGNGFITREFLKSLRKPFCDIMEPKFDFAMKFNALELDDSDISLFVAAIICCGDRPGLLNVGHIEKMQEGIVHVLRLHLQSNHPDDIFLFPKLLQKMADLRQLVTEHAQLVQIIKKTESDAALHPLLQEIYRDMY
Kind of assay: PPARα competition binding assay.
From the text: as §1

For assay [3], the target named is T3, human GST-LXRβ ligand binding domain receptor (Homo sapiens, UniProt P55055).
T3 construct: human LXRβ (amino acids 149-455) were subcloned into the pGEX-KT expression vector; made in house; host or cells: E. coli (pGEX-KT vector)
T3 sequence (P55055 149-455): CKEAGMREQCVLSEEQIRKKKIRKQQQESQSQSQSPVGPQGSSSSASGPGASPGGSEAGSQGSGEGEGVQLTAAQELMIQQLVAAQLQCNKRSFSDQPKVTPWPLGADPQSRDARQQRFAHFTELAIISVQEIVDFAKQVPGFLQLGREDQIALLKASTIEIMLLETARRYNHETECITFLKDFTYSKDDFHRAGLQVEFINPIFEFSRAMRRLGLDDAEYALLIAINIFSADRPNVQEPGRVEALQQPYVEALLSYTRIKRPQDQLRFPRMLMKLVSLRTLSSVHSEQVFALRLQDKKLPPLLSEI
As to the kind of experiment: Radioligand competition binding scintillation proximity assay, LXRβ. From the text:
(§2) Radioligand Competition Binding Scintillation Proximity Assays:
(§3) Preparation of Recombinant Human LXRα and LXRβ:
(§4) Human LXRα and LXRβ were expressed as GST-fusion proteins in E. coli. The ligand binding domain cDNAs for human LXRα (amino acids 164-447) and human LXRβ (amino acids 149-455) were subcloned into the pGEX-KT expression vector (Pharmacia). E. coli containing the respective plasmids were propagated, induced, and harvested by centrifugation. The resuspended pellet was broken in a French press and debris was removed by centrifugation. Recombinant human LXR receptors were purified by affinity chromatography on glutathione sepharose and receptor was eluted with glutathione. Glycerol was added to a final concentration of 50% to stabilize the receptor and aliquots were stored at −80° C.
(§5) After incubation for ˜16 h at 15° C. with shaking, the assay plates were counted in a Packard Topcount.

Assay [4] concerns cholesterol-loaded THP-1 macrophages. As to the kind of experiment: Stimulation of cholesterol efflux from cholesterol-loaded THP-1 macrophages. Type of assay: cell-based, human. Particulars: 1 μM, 24 hours, mean±SEM. The text has this:
Stimulation of Cholesterol Efflux from Cholesterol-Loaded Cells
To determine if LXR agonists could increase cholesterol efflux in cells that were loaded with excess cholesterol, THP-1 cells were loaded with cholesterol using acetylated LDL prior to the assay of cholesterol efflux Specifically, cultured human THP-1 cells were stimulated to differentiate into macrophages as described above. After differentiation, the THP-1 macrophages were loaded with cholesterol and simultaneously labeled with ^3H-cholesterol using acetylated LDL containing ^3H-cholesterol essentially as described by Kritharides et al. (1998) Arterioscler Thromb Vasc Biol. 18:1589-1599. After 24 hours of incubation with 100 μg/ml of acetylated LDL labelled with ^3H-cholesterol, the cells were incubated in Complete RPMI medium containing 0.1% lipid-free BSA for 24 hours to allow for equilibration of cellular cholesterol pools. Cholesterol efflux was then measured over the following 24 hours by incubating the cells in Complete RPMI medium with either apoA-I or HDL as cholesterol acceptor, and with either 1 μM Compound 1 or DMSO as control.

For assay [5], the target named is T4, human GST-LXRα receptor (Homo sapiens, UniProt Q13133).
T4 construct: made in house; host or cells: E. coli (pGEX-KT vector)
T4 sequence (Q13133 164-447): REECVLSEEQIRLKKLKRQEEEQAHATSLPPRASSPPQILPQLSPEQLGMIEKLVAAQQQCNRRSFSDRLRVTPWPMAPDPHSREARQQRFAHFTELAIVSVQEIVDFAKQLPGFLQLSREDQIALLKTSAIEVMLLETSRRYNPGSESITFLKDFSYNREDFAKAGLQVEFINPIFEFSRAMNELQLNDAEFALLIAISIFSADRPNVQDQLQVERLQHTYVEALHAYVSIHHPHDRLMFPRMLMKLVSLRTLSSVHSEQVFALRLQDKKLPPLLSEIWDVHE
As to the kind of experiment: Radioligand competition binding scintillation proximity assay, LXRα.
From the text: as §2, §3, §4, §5
For orientation: Loss of bound radioactivity is the signal in a displacement assay; it reports binding, not function.

By IC50 is commonly meant the point on the concentration scale where inhibition reaches its midpoint. A low value points to inhibition by little substance. The term Ki denotes the dissociation constant of the complex between target and ligand, obtained from inhibition or displacement.

As to `CC(=O)Oc1ccc2c(c1)[C@@]1(C)CCC[C@](C)(C(=O)OC(=O)[C@@]3(C)CCC[C@]4(C)c5cc(OC(C)=O)ccc5CC[C@@H]34)[C@@H]1CC2` [Compound 1], the 50% inhibitory concentration (IC50) in assay [1] was more than 10000 nM; in assay [2] it was more than 10000 nM; in assay [3] it was 40 nM; in assay [5] it was 80 nM. The Ki in assay [3] (read-out: LXRβ calculated Ki) is approximately 14 nM; in assay [5] (read-out: LXRα calculated Ki), approximately 30 nM. The “Cholesterol efflux (% of cell contents)” value in assay [4] (acceptor 10 μg/ml apoA-I, DMSO control 6.4 ± 0.3) is listed as 10.3 ± 0.4 % of cell contents; in assay [4] (acceptor 25 μg/ml HDL, DMSO control 14.9 ± 0.5), 18.6 ± 0.7 % of cell contents.
